From patent US20150329519A1, “Formulations Comprising Lipoyl Compounds” (Ischemix, LLC, priority 2014, published 2015)

Tests used:
[1] = system: myocardial damage associated with percutaneous coronary intervention; conditions: human trial, Kates et al. 2014; cited from earlier work
[2] = Polymer content by HPLC area counts after formulation or salt formation; format: physicochemical
Procedure: The purity of a lipoyl compound was analyzed by reversed-phase high performance liquid chromatography (HPLC). Mobile phase A was 0.1% triflouroacetic acid (TFA) in H2O and mobile phase B was 0.1% TFA in acetontrile (ACN). A linear gradient of 85:15 to 26:74 over 22 minutes at a flow rate of 1.5 mL/min at 30° C. was used. A lipoyl compound was diluted in ethanol:water (1:1) at a concentration of 1 mg/mL and a 25 μL aliquot was injected onto the HPLC. The sample was detected at 220 nm.
The initial procedure used to formulate (R)Lip-EA-OH consisted of the following sequence: • 1. Neutralize solid (R)Lip-EA-OH by treatment with aqueous sodium bicarbonate or sodium hydroxide; • 2. Dilute with water and saline to near the final volume and concentration; and • 3. Adjust pH and add water to final volume and concentration.
This formulation procedure was used effectively to prepare formulation from multiple lots of (R)Lip-EA-OH that were synthesized at scales below 50 g. As the synthetic process was scaled-up, however, partial polymerization of (R)Lip-EA-OH was observed during formulation. […]
Since (R)Lip-EA-OH was converted to the corresponding bis-sodium salt in situ during formulation, a procedure for synthesizing the bis-sodium salt of (R)Lip-EA-OH was examined. […] The isolated polymer was treated with the reducing agent dithiothreitol (DTT), and the resulting sample was analyzed by HPLC. […]

[3] = system: patients with stable coronary artery disease undergoing elective stent placement by PCI; experiment: Randomized placebo-controlled study of single IV dose in patients undergoing elective stent placement by PCI (CK-MB, Troponin-T); format: in vivo, human; conditions: for Troponin-T (ng/mL) - Change from baseline (FAP population), Mean / Troponin-T (ng/mL) - Change from baseline (FAP population), Median / Troponin-T (ng/mL), Mean / Troponin-T (ng/mL), Median: Day 1 (24 hours)
Procedure: A prospective, multi-center, blinded, randomized, placebo-controlled study to evaluate single dose regimens of a 10 mg/mL (R)Lip-EA-OH formulation for IV administration or single dose placebo in patients with stable coronary artery disease undergoing elective stent placement by PCI meeting all the eligibility criteria was conducted. The (R)Lip-EA-OH formulation was made in accordance with Example 3 and was administered at one of three doses: 0.8 mg/kg, 1.6 mg/kg and 2.4 mg/kg. The primary objective was to assess the safety of the (R)Lip-EA-OH formulation, ascertained by measuring the changes in CK-MB values up to 24 hours after the last balloon inflation. The secondary objective was to evaluate reduction of myocardial injury associated with stent PCI, as determined by serial measurements of cardiac biomarkers and as determined by continuous and serial ECG readings.
The primary outcome measure was the change in CK-MB at 24 hours after the last balloon inflation and it served as a surrogate marker for myocardial injury considered for safety and efficacy. CK-MB levels were measured on Day 1 at 0, 6, 12, 18, and 24 hours after the last balloon inflation.
The maximum serum concentration of CK-MB (Cmax) is calculated by subtracting the baseline value from the maximum concentration of CK-MB measured at any time point. CK-MB Cmax is correlated to the extent of myocardial injury associated with the PCI. The greatest Cmax value observed was in the placebo group.

[4] = 2.4 mg/kg dose group compared with other groups
[5] = 0.8, 1.6 or 2.4 mg/kg versus placebo, following PCI

Polymer based upon HPLC area counts ([2]; after formulation by the initial procedure (solid neutralized, then diluted), FIG. 1): > 20%
Polymer by HPLC area count analysis ([2]; initially, before formulation): < 0.1%
SMILES: C[C@H](NC(=O)[C@H](CCC(=O)O)NC(=O)CCCC[C@@H]1CCSS1)C(=O)O [(R)Lip-EA-OH, α-N—[(R)-1,2-diothiolane-3-pentanoyl]-L-glutamyl-L-alanine]
Protection against myocardial damage associated with percutaneous coronary intervention [1]: statistically significant protection
CK-MB (ng/mL) - Change from Baseline, Mean ([3]; 0.8 mg/kg single IV dose of 10 mg/mL formulation, 6 hr after last balloon inflation): 0.12 ng/mL
CK-MB (ng/mL) - Change from Baseline, Mean ([3]; 0.8 mg/kg single IV dose of 10 mg/mL formulation, 12 hr after last balloon inflation): 1.63 ng/mL
CK-MB (ng/mL) - Change from Baseline, Mean ([3]; 0.8 mg/kg single IV dose of 10 mg/mL formulation, 18 hr after last balloon inflation): 1.87 ng/mL
CK-MB (ng/mL) - Change from Baseline, Mean ([3]; 0.8 mg/kg single IV dose of 10 mg/mL formulation, 24 hr after last balloon inflation): 1.80 ng/mL
Troponin-T (ng/mL) - Change from baseline (FAP population), Mean ([3]; 0.8 mg/kg): 0.041 ng/mL
Troponin-T (ng/mL) - Change from baseline (FAP population), Median ([3]; 0.8 mg/kg): 0.000 ng/mL
Troponin-T (ng/mL), Mean ([3]; 0.8 mg/kg): 0.042 ng/mL
Troponin-T (ng/mL), Median ([3]; 0.8 mg/kg): 0.000 ng/mL
CK-MB (ng/mL) - Change from Baseline, Mean ([3]; 1.6 mg/kg single IV dose of 10 mg/mL formulation, 6 hr after last balloon inflation): 0.76 ng/mL
CK-MB (ng/mL) - Change from Baseline, Mean ([3]; 1.6 mg/kg single IV dose of 10 mg/mL formulation, 12 hr after last balloon inflation): 1.95 ng/mL
CK-MB (ng/mL) - Change from Baseline, Mean ([3]; 1.6 mg/kg single IV dose of 10 mg/mL formulation, 18 hr after last balloon inflation): 2.55 ng/mL
CK-MB (ng/mL) - Change from Baseline, Mean ([3]; 1.6 mg/kg single IV dose of 10 mg/mL formulation, 24 hr after last balloon inflation): 2.54 ng/mL
Troponin-T (ng/mL) - Change from baseline (FAP population), Mean ([3]; 1.6 mg/kg): 0.068 ng/mL
Troponin-T (ng/mL) - Change from baseline (FAP population), Median ([3]; 1.6 mg/kg): 0.000 ng/mL
Troponin-T (ng/mL), Mean ([3]; 1.6 mg/kg): 0.066 ng/mL
Troponin-T (ng/mL), Median ([3]; 1.6 mg/kg): 0.000 ng/mL
CK-MB Cmax as an indicator of injury [3, 4]: least amount of injury
Efficacy markers of periprocedural injury (changes in Troponin-T, CK-MB AUC0-24, Cmax of CK-MB) [3, 4]: lowest
CK-MB (ng/mL) - Change from Baseline, Mean ([3]; 2.4 mg/kg single IV dose of 10 mg/mL formulation, 6 hr after last balloon inflation): -0.10 ng/mL
CK-MB (ng/mL) - Change from Baseline, Mean ([3]; 2.4 mg/kg single IV dose of 10 mg/mL formulation, 12 hr after last balloon inflation): 0.10 ng/mL
CK-MB (ng/mL) - Change from Baseline, Mean ([3]; 2.4 mg/kg single IV dose of 10 mg/mL formulation, 18 hr after last balloon inflation): 0.30 ng/mL
CK-MB (ng/mL) - Change from Baseline, Mean ([3]; 2.4 mg/kg single IV dose of 10 mg/mL formulation, 24 hr after last balloon inflation): 0.44 ng/mL
Troponin-T (ng/mL) - Change from baseline (FAP population), Mean ([3]; 2.4 mg/kg): 0.018 ng/mL
Troponin-T (ng/mL) - Change from baseline (FAP population), Median ([3]; 2.4 mg/kg): 0.000 ng/mL
Troponin-T (ng/mL), Mean ([3]; 2.4 mg/kg): 0.019 ng/mL
Troponin-T (ng/mL), Median ([3]; 2.4 mg/kg): 0.000 ng/mL
Maximum CK-MB change from baseline (FIG. 3) [3, 5]: less myocardial injury than patients in the placebo group
Troponin T change from baseline in the full analysis population (FIG. 4) [3, 5]: less myocardial injury than patients in the placebo group
Efficacy in reducing myocardial injury / cardioprotective action ([3]; patients undergoing stent PCI, 0.8, 1.6 or 2.4 mg/kg): demonstrated efficacy in reducing the myocardial injury
